Legend:
[1] = Qualitative solubility screen of Tabernanthalog sorbate salt (Example 10, Experiment 2); assay type: physicochemical; details: Tabernanthalog sorbate salt (input Form A), one solvent per sample; for Assignment (wet pellet XRPD): product crystallised in solubility screen, centrifuged wet pellet; for Assignment (dry pellet XRPD): same pellets dried under reduced pressure
Description: The qualitative solubility screen was carried out to determine the range of solvents incorporated into future suspension equilibration panels. Products that crystallised were centrifuged and analysed as wet pellet by XRPD, dried under reduced pressure and re-analysed by XRPD, with selected samples further analysed by TGA and ^1H NMR spectroscopy.
If insoluble at 5 vol, the solvent quantity was increased to 10 vol, 15 vol and 20 vol of the respective solvent. The suspensions that occurred upon cooling down were centrifuged and the solvent wet pellets were analysed by XRPD.
The insoluble suspensions were additionally worked up for XRPD analysis. The resultant powder patterns were subsequently cross-referenced against the input supplied material.

[2] = Suspension equilibration of sorbate salt at 20 and 40° C. (Example 10, Experiments 3, 4, 9); assay type: physicochemical; details: for Observations (t = 1 d @ 40° C.) / Observations (t = 10 d @ 40° C.) / Observations (t = 1 d @ 20° C.) / Observations (t = 10 d @ 20° C.): sorbate salt Form A in 5 vol solvent; for Observations (t = 1 d @ 40° C.) / Observations (t = 10 d @ 40° C.) / Observations (t = 0 @ 40° C.) / XRPD (IPC, 6 d, wet) / XRPD (post oven dried) / Observations (t = 1 d @ 20° C.) / Observations (t = 10 d @ 20° C.) / Observations (t = 0 @ 20° C.): one solvent per sample; for Observations (t = 0 @ 40° C.) / Observations (t = 0 @ 20° C.): sorbate salt Form A, ca. 50 mg in 5 vol solvent; for XRPD (IPC, 6 d, wet): moist pellet after 6 d; for XRPD (post oven dried): pellet after oven drying
Description: The purpose of this panel is to determine if Form A evolves into a supra-ordinate form. The companion panel at 40° C. set-point is in place to detect enantiotropic behaviour via different relative proportions in different solvents. XRPD data of the moist pellets obtained from the suspension equilibration study at 20° C.
The relevant solvent (5 vol) was added to the appropriate vial and the suspensions were stirred and warmed to the predetermined temperature with stirring. […]

[3] = suspension equilibration at 40° C.
[4] = suspension equilibration at 20° C.

## CC=CC=CC(=O)O.COc1ccc2c3c([nH]c2c1)CCN(C)CC3 [Experiment 2-Sample P1]
[1]
  Assignment (wet pellet XRPD): Form A
  Assignment (dry pellet XRPD): Form A

## C/C=C/C=C/C(=O)O.COc1ccc2c3c([nH]c2c1)CCN(C)CC3 [Experiment 4-Sample O]
[2]
  Observations (t = 1 d @ 40° C.): Suspension
  Observations (t = 10 d @ 40° C.): Suspension
  Observations (t = 0 @ 40° C.): Suspension

## CC=CC=CC(=O)O.COc1ccc2c3c([nH]c2c1)CCN(C)CC3 [Experiment 4-Sample I]
[2]
  Observations (t = 1 d @ 40° C.): Suspension
  Observations (t = 10 d @ 40° C.): Suspension
  Observations (t = 0 @ 40° C.): Suspension
[2]; [3]
  XRPD (IPC, 6 d, wet): Form A
  XRPD (post oven dried): Form A

## C/C=C/C=C/C(=O)O.COc1ccc2c3c([nH]c2c1)CCN(C)CC3 [Experiment 3-Sample C]
[2]
  Observations (t = 1 d @ 20° C.): Suspension
  Observations (t = 10 d @ 20° C.): Suspension
  Observations (t = 0 @ 20° C.): Suspension
[2]; [4]
  XRPD (IPC, 6 d, wet): Form A
  XRPD (post oven dried): Form A

## CC=CC=CC(=O)O.COc1ccc2c3c([nH]c2c1)CCN(C)CC3 [Experiment 4-Sample K]
[2]
  Observations (t = 1 d @ 40° C.): Suspension
  Observations (t = 10 d @ 40° C.): Suspension
  Observations (t = 0 @ 40° C.): Suspension
[2]; [3]
  XRPD (IPC, 6 d, wet): Form A
  XRPD (post oven dried): Form A

## CC=CC=CC(=O)O.COc1ccc2c3c([nH]c2c1)CCN(C)CC3 [Experiment 4-Sample N]
[2]
  Observations (t = 1 d @ 40° C.): Suspension
  Observations (t = 10 d @ 40° C.): Suspension
  Observations (t = 0 @ 40° C.): Suspension
[2]; [3]
  XRPD (IPC, 6 d, wet): Form A
  XRPD (post oven dried): Form A

## CC=CC=CC(=O)O.COc1ccc2c3c([nH]c2c1)CCN(C)CC3 [Experiment 4-Sample L]
[2]
  Observations (t = 1 d @ 40° C.): Suspension
  Observations (t = 10 d @ 40° C.): Suspension
  Observations (t = 0 @ 40° C.): Suspension
[2]; [3]
  XRPD (IPC, 6 d, wet): Form A
  XRPD (post oven dried): Form A

## CC=CC=CC(=O)O.COc1ccc2c3c([nH]c2c1)CCN(C)CC3.O
[1]
  Assignment (wet pellet XRPD): Pattern #1
  Assignment (dry pellet XRPD): Converted into Form A

## CC=CC=CC(=O)O.COc1ccc2c3c([nH]c2c1)CCN(C)CC3 [Experiment 2-Sample R1]
[1]
  Assignment (wet pellet XRPD): Form A
  Assignment (dry pellet XRPD): Form A

## C/C=C/C=C/C(=O)O.COc1ccc2c3c([nH]c2c1)CCN(C)CC3 [Experiment 4-Sample H]
[2]
  Observations (t = 1 d @ 40° C.): Suspension
  Observations (t = 10 d @ 40° C.): Suspension
  Observations (t = 0 @ 40° C.): Suspension
[2]; [3]
  XRPD (IPC, 6 d, wet): Pattern #3
  XRPD (post oven dried): Form A

## C/C=C/C=C/C(=O)O.COc1ccc2c3c([nH]c2c1)CCN(C)CC3 [Experiment 4-Sample B]
[2]
  Observations (t = 1 d @ 40° C.): Suspension
  Observations (t = 10 d @ 40° C.): Suspension
  Observations (t = 0 @ 40° C.): Suspension
[2]; [3]
  XRPD (IPC, 6 d, wet): Form A
  XRPD (post oven dried): Form A

## CC=CC=CC(=O)O.COc1ccc2c3c([nH]c2c1)CCN(C)CC3 [Experiment 3-Sample M]
[2]
  Observations (t = 1 d @ 20° C.): Suspension
  Observations (t = 10 d @ 20° C.): Suspension
  Observations (t = 0 @ 20° C.): Suspension
[2]; [4]
  XRPD (IPC, 6 d, wet): Form A
  XRPD (post oven dried): Form A

## CC=CC=CC(=O)O.COc1ccc2c3c([nH]c2c1)CCN(C)CC3 [Experiment 3-Sample S]
[2]
  Observations (t = 1 d @ 20° C.): Solution
  Observations (t = 0 @ 20° C.): Solution

## CC=CC=CC(=O)O.COc1ccc2c3c([nH]c2c1)CCN(C)CC3 [Experiment 4-Sample F]
[2]
  Observations (t = 1 d @ 40° C.): Partial
  Observations (t = 0 @ 40° C.): Partial
[2]; [3]
  XRPD (IPC, 6 d, wet): Form A
  XRPD (post oven dried): Form A

## CC=CC=CC(=O)O.COc1ccc2c3c([nH]c2c1)CCN(C)CC3 [Experiment 3-Sample N]
[2]
  Observations (t = 1 d @ 20° C.): Suspension
  Observations (t = 10 d @ 20° C.): Suspension
  Observations (t = 0 @ 20° C.): Suspension
[2]; [4]
  XRPD (IPC, 6 d, wet): Form A
  XRPD (post oven dried): Form A

## COc1ccc2c3c([nH]c2c1)CCN(C)CC3 [Experiment 2-Sample D1]
[1]
  Assignment (wet pellet XRPD): Form A
  Assignment (dry pellet XRPD): Form A
[1]; listed as Experiment 2-Sample E1
  Assignment (wet pellet XRPD): Form A + split reflections 5.90º,

## CC=CC=CC(=O)O.COc1ccc2c3c([nH]c2c1)CCN(C)CC3 [Experiment 2-Sample J1]
[1]
  Assignment (wet pellet XRPD): Form A, some shift of d-spacings
  Assignment (dry pellet XRPD): Form A

## CC=CC=CC(=O)O.COc1ccc2c3c([nH]c2c1)CCN(C)CC3 [Experiment 2-Sample H1]
[1]
  Assignment (wet pellet XRPD): Form A + new shoulders
  Assignment (dry pellet XRPD): Form A + new shoulders

## CC=CC=CC(=O)O.COc1ccc2c3c([nH]c2c1)CCN(C)CC3 [Experiment 3-Sample F]
[2]
  Observations (t = 1 d @ 20° C.): Suspension
  Observations (t = 10 d @ 20° C.): Suspension
  Observations (t = 0 @ 20° C.): Suspension
[2]; [4]
  XRPD (IPC, 6 d, wet): Form A
  XRPD (post oven dried): Form A

## CC=CC=CC(=O)O.COc1ccc2c3c([nH]c2c1)CCN(C)CC3 [Experiment 2-Sample M1]
[1]
  Assignment (wet pellet XRPD): Form A + shoulder 22.89º 2
  Assignment (dry pellet XRPD): Form A + new shoulder

## CC=CC=CC(=O)O.COc1ccc2c3c([nH]c2c1)CCN(C)CC3 [Experiment 3-Sample T]
[2]
  Observations (t = 1 d @ 20° C.): Solution
  Observations (t = 10 d @ 20° C.): Solution
  Observations (t = 0 @ 20° C.): Solution

## COc1ccc2c3c([nH]c2c1)CCN(C)CC3.O=C(O)/C=C/C(=O)O [Experiment 2-Sample C1]
[1]
  Assignment (wet pellet XRPD): Form A
  Assignment (dry pellet XRPD): Form A

## CC=CC=CC(=O)O.COc1ccc2c3c([nH]c2c1)CCN(C)CC3 [Experiment 9-Sample C]
[2]; Experiment 9, suspension equilibration at 40° C., filter dried
  XRPD (post Filter dried): Form A
[2]; Experiment 9, suspension equilibration at 40° C., targets Pattern #3, #4, #5
  XRPD (IPC, 5 d, wet): Form A

## CC=CC=CC(=O)O.COc1ccc2c3c([nH]c2c1)CCN(C)CC3 [Experiment 2-Sample I1]
[1]
  Assignment (wet pellet XRPD): Oiled

## C/C=C/C=C/C(=O)O.COc1ccc2c3c([nH]c2c1)CCN(C)CC3 [Experiment 4-Sample R]
[2]
  Observations (t = 1 d @ 40° C.): Suspension
  Observations (t = 10 d @ 40° C.): Suspension
  Observations (t = 0 @ 40° C.): Suspension
[2]; [3]
  XRPD (IPC, 6 d, wet): Pattern #4
  XRPD (post oven dried): Form A

## C/C=C/C=C/C(=O)O.COc1ccc2c3c([nH]c2c1)CCN(C)CC3 [Experiment 2-Sample N1]
[1]
  Assignment (wet pellet XRPD): Form A + split reflections
  Assignment (dry pellet XRPD): Form A

## CC=CC=CC(=O)O.COc1ccc2c3c([nH]c2c1)CCN(C)CC3 [Experiment 4-Sample G]
[2]
  Observations (t = 1 d @ 40° C.): Suspension
  Observations (t = 10 d @ 40° C.): Suspension
  Observations (t = 0 @ 40° C.): Suspension
[2]; [3]
  XRPD (IPC, 6 d, wet): Form A
  XRPD (post oven dried): Form A

## C/C=C/C=C/C(=O)O.COc1ccc2c3c([nH]c2c1)CCN(C)CC3 [Experiment 4-Sample E]
[2]
  Observations (t = 1 d @ 40° C.): Solution
  Observations (t = 0 @ 40° C.): Partial
[2]; [3]
  XRPD (IPC, 6 d, wet): Pattern #5

## CC=CC=CC(=O)O.COc1ccc2c3c([nH]c2c1)CCN(C)CC3 [Experiment 3-Sample O]
[2]
  Observations (t = 1 d @ 20° C.): Suspension
  Observations (t = 10 d @ 20° C.): Suspension
  Observations (t = 0 @ 20° C.): Suspension
[2]; [4]
  XRPD (IPC, 6 d, wet): Form A
  XRPD (post oven dried): Form A

## CC=CC=CC(=O)O.COc1ccc2c3c([nH]c2c1)CCN(C)CC3 [Experiment 3-Sample L]
[2]
  Observations (t = 1 d @ 20° C.): Suspension
  Observations (t = 10 d @ 20° C.): Suspension
  Observations (t = 0 @ 20° C.): Suspension
[2]; [4]
  XRPD (IPC, 6 d, wet): Form A
  XRPD (post oven dried): Form A

## CC=CC=CC(=O)O.COc1ccc2c3c([nH]c2c1)CCN(C)CC3 [Experiment 2-Sample O1]
[1]
  Assignment (wet pellet XRPD): Form A + split reflections
  Assignment (dry pellet XRPD): Form A

## CC=CC=CC(=O)O.COc1ccc2c3c([nH]c2c1)CCN(C)CC3 [Experiment 3-Sample R]
[2]
  Observations (t = 1 d @ 20° C.): Suspension
  Observations (t = 10 d @ 20° C.): Suspension
  Observations (t = 0 @ 20° C.): Suspension
[2]; [4]
  XRPD (IPC, 6 d, wet): Pattern #2
  XRPD (post oven dried): Form A

## CC=CC=CC(=O)O.COc1ccc2c3c([nH]c2c1)CCN(C)CC3 [Experiment 2-Sample Q1]
[1]
  Assignment (wet pellet XRPD): Form A + new shoulders
  Assignment (dry pellet XRPD): Form A

## CC=CC=CC(=O)O.COc1ccc2c3c([nH]c2c1)CCN(C)CC3 [Experiment 2-Sample G1]
[1]
  Assignment (wet pellet XRPD): Form A
  Assignment (dry pellet XRPD): Form A

## CC=CC=CC(=O)O.COc1ccc2c3c([nH]c2c1)CCN(C)CC3 [Experiment 2-Sample L1]
[1]
  Assignment (wet pellet XRPD): Form A
  Assignment (dry pellet XRPD): Form A
